# Test results taken from PubChem BioAssay (NCI).
#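 At the GI50, growth is halved. TGI denotes the concentration required for complete inhibition of growth.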
# Columns and labels:
# Assay in all cases: NCI anticancer screen, dose series, 384-well format
# [1] = system: SNB-19 CNS
# [2] = system: MDA-MB-468 breast
# [3] = system: HOP-62 NSCLC
# [4] = system: MALME-3M melanoma
# [5] = system: ACHN renal
# [6] = system: 786-0 renal
# [7] = system: OVCAR-4 ovarian
# [8] = system: NCI/ADR-RES ovarian
# [9] = system: COLO 205 colon
# [10] = system: TK-10 renal
# [11] = system: A498 renal
# [12] = system: OVCAR-8 ovarian
# [13] = system: SK-OV-3 ovarian
# [14] = system: HCT-116 colon
# [15] = system: MDA-MB-231 breast
# [16] = system: OVCAR-5 ovarian
# [17] = system: NCI-H522 lung
# [18] = system: SF-295 CNS
# [19] = system: T-47D breast
# [20] = system: UO-31 renal
# [21] = system: NCI-H23 lung
# [22] = system: DU-145 prostate
# [23] = system: BT-549 breast
# [24] = system: OVCAR-3 ovarian
# [25] = system: EKVX NSCLC
# [26] = system: A549 NSCLC
# [27] = system: SK-MEL-28 melanoma
# [28] = system: RPMI-8226 leukemia
# [29] = system: U251 glioblastoma
# [30] = system: UACC-257 melanoma
# [31] = system: M14 melanoma
# [32] = system: HOP-92 NSCLC
# [33] = system: NCI-H322M lung
# [34] = system: LOX IMVI melanoma
# [35] = system: HT29 colon
# [36] = system: MCF7 breast
# [37] = system: CCRF-CEM leukemia
# [38] = system: SN12C renal
# [39] = system: RXF 393 renal
# [40] = system: KM12 colon
# [41] = system: SNB-75 CNS
# [42] = system: SR leukemia
# [43] = system: HL-60(TB) leukemia
# [44] = system: HS 578T breast
# [45] = system: K-562 leukemia
# [46] = system: SF-539 CNS
# [47] = system: SF-268 CNS
# [48] = system: HCC-2998 colon
# [49] = system: CAKI-1 renal
# [50] = system: HCT-15 colon
# [51] = system: MDA-MB-435 melanoma
# [52] = system: SK-MEL-5 melanoma
# [53] = system: IGROV1 ovarian
# [54] = system: MOLT-4 leukemia
# [55] = system: PC-3 prostate
# [56] = system: NCI-H226 lung
# [57] = system: SW-620 colon
# [58] = system: NCI-H460 NSCLC
structure (smiles),measurement,setting,value
CN1CCC(CNc2ccc3ncc(-c4cccc(OC(F)(F)F)c4)n3n2)CC1,GI50,[1],1740 nM
same,TGI,[1],3170 nM
same,GI50,[2],1100 nM
same,TGI,[2],2310 nM
same,GI50,[3],1620 nM
same,TGI,[3],3000 nM
same,GI50,[4],1560 nM
same,TGI,[4],2910 nM
same,GI50,[5],1590 nM
same,TGI,[5],2960 nM
same,GI50,[6],1660 nM
same,TGI,[6],3050 nM
same,GI50,[7],1740 nM
same,TGI,[7],3190 nM
same,GI50,[8],1620 nM
same,TGI,[8],3020 nM
same,GI50,[9],1790 nM
same,TGI,[9],3190 nM
same,GI50,[10],1700 nM
same,TGI,[10],3110 nM
same,GI50,[11],1420 nM
same,TGI,[11],2730 nM
same,GI50,[12],1610 nM
same,TGI,[12],2990 nM
same,GI50,[13],1670 nM
same,TGI,[13],3050 nM
same,GI50,[14],1590 nM
same,TGI,[14],2980 nM
same,GI50,[15],1610 nM
same,TGI,[15],2970 nM
same,GI50,[16],1610 nM
same,TGI,[16],3210 nM
same,GI50,[17],1560 nM
same,TGI,[17],2900 nM
same,GI50,[18],1450 nM
same,TGI,[18],2780 nM
same,GI50,[19],1770 nM
same,TGI,[19],3170 nM
same,GI50,[20],1660 nM
same,TGI,[20],3040 nM
same,GI50,[21],1540 nM
same,TGI,[21],2940 nM
same,GI50,[22],2050 nM
same,TGI,[22],4510 nM
same,GI50,[23],1400 nM
same,TGI,[23],2710 nM
same,GI50,[24],1620 nM
same,TGI,[24],3010 nM
same,GI50,[25],1480 nM
same,TGI,[25],2900 nM
same,GI50,[26],1720 nM
same,TGI,[26],3120 nM
same,GI50,[27],1750 nM
same,TGI,[27],3130 nM
same,GI50,[28],1370 nM
same,TGI,[28],2670 nM
same,GI50,[29],1810 nM
same,TGI,[29],3220 nM
same,GI50,[30],1620 nM
same,TGI,[30],2980 nM
same,GI50,[31],1490 nM
same,TGI,[31],2820 nM
same,GI50,[32],1650 nM
same,TGI,[32],3020 nM
same,GI50,[33],1920 nM
same,TGI,[33],3800 nM
same,GI50,[34],1740 nM
same,TGI,[34],3140 nM
same,GI50,[35],1660 nM
same,TGI,[35],3090 nM
same,GI50,[36],1450 nM
same,TGI,[36],2800 nM
same,GI50,[37],1800 nM
same,TGI,[37],3210 nM
same,GI50,[38],1550 nM
same,TGI,[38],2910 nM
same,GI50,[39],1350 nM
same,TGI,[39],2640 nM
same,GI50,[40],375 nM
same,TGI,[40],1420 nM
same,GI50,[41],1500 nM
same,TGI,[41],2860 nM
same,GI50,[42],1250 nM
same,TGI,[42],2520 nM
same,GI50,[43],1250 nM
same,TGI,[43],2530 nM
same,GI50,[44],1590 nM
same,TGI,[44],2950 nM
same,GI50,[45],1630 nM
same,TGI,[45],3040 nM
same,GI50,[46],1530 nM
same,TGI,[46],2870 nM
same,GI50,[47],1650 nM
same,TGI,[47],3040 nM
same,GI50,[48],1430 nM
same,TGI,[48],2760 nM
same,GI50,[49],1380 nM
same,TGI,[49],2710 nM
same,GI50,[50],1580 nM
same,TGI,[50],2970 nM
same,GI50,[51],1710 nM
same,TGI,[51],3100 nM
same,GI50,[52],1120 nM
same,TGI,[52],2330 nM
same,GI50,[53],1550 nM
same,TGI,[53],2940 nM
same,GI50,[54],1310 nM
same,TGI,[54],2590 nM
same,GI50,[55],1260 nM
same,TGI,[55],2620 nM
same,GI50,[56],1480 nM
same,TGI,[56],2820 nM
same,GI50,[57],1600 nM
same,TGI,[57],2980 nM
same,GI50,[58],1710 nM
same,TGI,[58],3150 nM
